“Also recorded” adds a separate entry of the source.

A short description of data set [1]: Stop-flow measurement of TAC-Red fluorescence response. Type of data set: physicochemical. The note with it: K^+ increased from 0 to 5 mM. As to the method: The TAC-Red fluorescence response was rapid when K^+ was increased from 0 to 5 mM in a stop-flow measurement (FIG. 1, panel c, inset), with greater than 90% of the fluorescence increase occurring in under 1 ms.

A further data set concerns brain cortex ECS. As to the kind of experiment: TAC-Red [K^+]o measurements in brain cortex (spreading depression). The following applies: freshly cut brain slices, 5 min transdural loading with about 50 μM. The format is in vivo, mice. How it is done:
TAC-Red [K^+]o measurements in brain cortex. Wildtype and AQP4 null mice in a CD1 genetic background (30-35 g body weight/age 10-12 weeks) were used (described in Ma et al. Ma et al. J. Clin. Invest. 100, 957-962 (1997)). These mice are phenotypically normal at baseline and have normal brain architecture; however they manifest altered brain swelling in response to cytotoxic and vasogenic forms of edema. Mice were anesthetized with 2,2,2-tribromoethanol (125 mg/kg, intraperitoneal (ip)) and the head was immobilized in a standard mouse stereotactic frame. Body temperature was maintained at 36-37° C. using a heating pad. The skull was exposed by a midline skin incision. A 2.7 mm diameter circular area of the thin, semi-translucent skull bone located 0.5 mm lateral to the midline and 1 mm posterior to the bregma was removed using a microdrill under microscope to expose intact dura with underlying brain. […]
Fluorescence was measured using a 1.6× objective lens (working distance 24 mm, numerical aperture 0.21), and custom filter set for TAC-Red (HQ, Chroma). […] Fluorescence was imaged using a 14-bit 1024×1024 pixel cooled CCD camera (CoolSnap HQ, Photometrics). […]
Image analysis. […] Half-times (t1/2) for the increasing and decreasing phases of TAC-Red fluorescence were determined by exponential regression analysis. […]

Data set [2] has as its system Fisher rat thyroid epithelial cell monolayers. As to the kind of experiment: Transport across epithelial cell monolayers. The format is in vitro ADME. An excerpt: (§1) TAC-Red fluorescence was not sensitive to divalent cations (Ca^++ or Mg^++) or various anions, or to pH in the range 6-8 (FIG. 1, panel e).
For another data set, the system named is cell viability or growth. Description: Cell viability or growth. Type of data set: cell-based.
From the text: as §1

The nature of a further data set: Water solubility. The format is physicochemical.
The nature of data set [3]: Fluorescence titrations of TAC-Red (spectroscopic analysis). Type of data set: physicochemical. As to the method: The TAC-Red compound was subjected to spectroscopic analysis. Fluorescence measurements were carried out by standard procedures using a FluoroMax-3 fluorimeter. Fluorescence titrations were carried out at 540 nm excitation and 574 nm emission wavelengths using aqueous solution containing about 7 μM at pH 7.0 (buffered with 5 mM HEPES) unless titrated with NaOH/HCl to other pH.
Spectra in FIG. 1, Panel b were obtained using balanced KCl/choline Cl to keep ionic strength constant at 300 mM. The titration in FIG. 1, panel c was done by adding indicated NaCl/KCl from concentrated stock solutions. The data in FIG. 1, panel d were obtained at constant ionic strength (300 mM) using NaCl or choline Cl to balance the KCl.

For data set [4], the system named is CHO-K1 cells. Description: K^+ efflux measured by TAC-Red fluorescence, plate reader assay. The format is cell-based. The following applies: 10 μM preincubation. As to the method:
(§2) TAC-Red as an indicator for measurement of K^+ channel function for high-throughput screening applications. CHO-K1 cells (ATCC CCL-61) were cultured in Ham's F12 media supplemented with 10% fetal bovine serum, 100 U/ml penicillin and 100 μg/ml streptomycin at 37° C. in a 5% CO2/95% air atmosphere and used at ˜90% confluence. For measurements using epifluorescence microscopy cells were grown until reaching confluency on 18-mm diameter round glass coverslips. For fluorescence plate reader assays cells were cultured on Costar 96-well black plates with a clear flat bottom and used when just confluent. […]
Plate reader assay: Measurements were done using a Fluostar plate reader (BMG LabTechnologies) with syringe pump for automated solution addition. […] The plate was loaded onto plate reader and after 6 s of fluorescence measurement 30 μl of TAC-Red (150 μM) in 0 K^+ buffer was added via syringe pump. TAC-Red fluorescence was excited using an HQ545/30 filter (Chroma) and emitted fluorescence was detected through a HQ585/30 filter.

Data set [5] has as its system CHO-K1 cells. As to the kind of experiment: K^+ efflux in CHO cells measured by TAC-Red fluorescence, fluorescence microscopy. The format is cell-based. The note with it: 10 μM pre-incubation, epifluorescence microscopy. How it is done:
as §2
Fluorescence microscopy: For most experiments cells on coverslips were incubated in 1 ml high K^+ buffer for 2 min prior to experiments. […] The washed cells were immediately placed cell-side down on the slide and fluorescence measured continuously. TAC-Red fluorescence was excited at 545±30 nm and detected through a 610±75 nm filter (570 nm dichroic) using a long working distance 25× air objective lens.
TAC-Red was used as an indicator of extracellular K^+, such that the rate of initial K^+ efflux into a 0 K^+ buffer could be measured. […]

On to `COCCOc1cc(-c2c3ccc(=[N+](C)C)cc-3oc3cc(N(C)C)ccc23)ccc1N1CCOc2cc(C)ccc2N2CCOCCOCCN(CCOCCOCC2)c2ccc(C)cc2OCC1.[Cl-]` [TAC-Red, {6-Dimethylamino-9-[4-(6,7,9,10,12,13,20,21,23,24-decahydro-2,17-dimethyl-5,14-(ethanoxyethanoxyethano)-5H,14H,22H-dibenzo[h,q][1,4,10,16,7,13,19]tetraoxatriazacyclo-heneicosin-22-yl)-3-(2-methoxyethoxy)phenyl]xanthen-3-ylidene}dimethylammonium chloride], for which the “Share of fluorescence increase occurring in under 1 ms” value in data set [1] is listed as “greater than 90%”. Moreover, the “Depth of TAC-Red staining beneath the brain surface” value with brain cortex ECS was over 500 μm. Moreover, the “Membrane permeability” value in data set [2] was “membrane impermeant; also recorded: membrane-impermeable”. Moreover, in data set [2] (in 6 hours), the “Transport across cell monolayers” value is given as under 1%. In addition, the “Effect on cell viability or growth” value in the data set on cell viability or growth is reported as “did not affect”. For the same compound, the “Water solubility” value in “Water solubility” is “water soluble”. Further, the “Effect of Na^+ on TAC-Red fluorescence vs. K^+” value in data set [3] (150 mM Na^+ in place of 150 mM choline^+) is listed as “did not affect”. In addition, the “Effect of Na^+ on TAC-Red fluorescence” value in data set [3] (50 and 150 mM Na^+) is recorded as “increased slightly”. In addition, the “Sensitivity of fluorescence to divalent cations” value in data set [3] (Ca^++ or Mg^++) is “not sensitive”. Further, in data set [3] (K^+ concentration increasing from 0-200 mM, 540 nm excitation, 574 nm emission, pH 7.0), the TAC-Red fluorescence increase entry was “more than 23 fold”. The “K^+ sensitivity of fluorescence” value in data set [3] (K^+ in the range 0 to >100 mM) is listed as “highly sensitive”; in data set [3] (K^+ range 0-40 mM expected in the brain ECS) it was “excellent K^+ sensitivity”. In addition, in data set [3] (at 50 mM), the “K^+-to-Na^+ selectivity ratio” value is listed as “about 37”. The “Specificity in titrations with monovalent cations” value in data set [3] (monovalent cations) was “specificity for K^+, Rb^+ and Cs^+ over Na^+ and Li^+”. The “Sensitivity of fluorescence to pH” value in data set [3] (pH in the range 6-8) is reported as “not sensitive”. Further, the “Sensitivity of fluorescence to various anions” value in data set [3] (various anions) is “not sensitive”.
For the compound `CC(C)[C@@H]1NC(=O)[C@H](C)OC(=O)[C@@H](C(C)C)NC(=O)[C@@H](C(C)C)OC(=O)[C@H](C(C)C)NC(=O)[C@H](C)OC(=O)[C@@H](C(C)C)NC(=O)[C@@H](C(C)C)OC(=O)[C@H](C(C)C)NC(=O)[C@H](C)OC(=O)[C@@H](C(C)C)NC(=O)[C@@H](C(C)C)OC1=O` [valinomycin], the “Effect on K^+ efflux” value in the data set with CHO-K1 cells [4] and in the data set on CHO-K1 cells [5] was “increased K^+ efflux” each time.

These data come from patent publication US8129365B2, “Water-soluble, fluorescent compounds for detection of potassium ions” (The Regents of the University of California, priority 2005, dated 2012).
